Assay results published in US9181239B2, “Pyridopyrimidinone inhibitors of kinases” (AbbVie Inc., priority 2011, dated 2015).

Target: T1, Wee1 kinase (Homo sapiens, UniProt P30291)
T1 construct: purchased Carnabio 05-177
Assay: Wee1 time-resolved fluorescence equilibrium binding assay (probe displacement)
Conditions: GST-tagged-Wee1 kinase 2 nM, fluorescent probe 300 nM, 1 hour incubation; read-out: Wee-1 binding (Ki nM)
Protocol: Wee1 kinase was assayed using a time-resolved fluorescence equilibrium binding assay monitoring displacement of a rapidly reversible Oregon Green-labeled ATP-competitive kinase probe (N-(2-(2-(2-(4-(4-(5-chloro-4-(2-(1-hydroxycyclobutyl)thiazol-5-yl)-1H-pyrrolo[2,3-b]pyridin-2-yl)phenyl)piperazin-1-yl)ethoxy)ethoxy)ethyl)-2′,7′-difluoro-3′,6′-dihydroxy-3-oxo-3H-spiro[isobenzofuran-1,9′-xanthene]-5-carboxamide) by competitive Wee1 inhibitors.

T1 sequence (P30291 whole entry): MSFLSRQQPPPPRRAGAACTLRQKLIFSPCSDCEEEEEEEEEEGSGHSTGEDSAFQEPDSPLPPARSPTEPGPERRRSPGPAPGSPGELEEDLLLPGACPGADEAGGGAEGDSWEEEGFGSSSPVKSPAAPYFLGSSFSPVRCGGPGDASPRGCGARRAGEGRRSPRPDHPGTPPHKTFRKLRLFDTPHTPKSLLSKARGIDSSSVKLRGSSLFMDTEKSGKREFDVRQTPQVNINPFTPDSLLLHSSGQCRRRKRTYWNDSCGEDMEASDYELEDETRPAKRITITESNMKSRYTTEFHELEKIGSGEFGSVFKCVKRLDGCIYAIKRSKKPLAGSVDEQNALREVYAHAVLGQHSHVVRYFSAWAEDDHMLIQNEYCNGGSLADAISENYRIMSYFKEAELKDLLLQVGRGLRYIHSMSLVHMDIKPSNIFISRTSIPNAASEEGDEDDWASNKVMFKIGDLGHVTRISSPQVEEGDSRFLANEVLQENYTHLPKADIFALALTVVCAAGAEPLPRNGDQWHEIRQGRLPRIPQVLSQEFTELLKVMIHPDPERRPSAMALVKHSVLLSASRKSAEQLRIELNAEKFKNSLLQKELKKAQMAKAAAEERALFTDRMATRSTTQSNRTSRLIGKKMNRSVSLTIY

Structure (SMILES) | Ki [nM]
CN1CCN(c2ccc(Nc3ncc4c(=O)c(-c5c(Cl)cccc5Cl)cn(-c5ccc(F)cc5)c4n3)cc2)CC1 [Example 9, 6-(2,6-dichlorophenyl)-8-(4-fluorophenyl)-2-{[4-(4-methylpiperazin-1-yl)phenyl]amino}pyrido[2,3-d]pyrimidin-5(8H)-one] | < 1
Cn1cc(-c2c(Cl)cccc2Cl)c(=O)c2cnc(Nc3ccc4c(c3)CCNC4)nc21 [Example 46, 6-(2,6-dichlorophenyl)-8-methyl-2-(1,2,3,4-tetrahydroisoquinolin-6-ylamino)pyrido[2,3-d]pyrimidin-5(8H)-one] | 1.1
Cn1cc(-c2c(Cl)cccc2Cl)c(=O)c2cnc(Nc3ccc4c(c3)C(=O)NC4=O)nc21 [Example 56, 5-{[6-(2,6-dichlorophenyl)-8-methyl-5-oxo-5,8-dihydropyrido[2,3-d]pyrimidin-2-yl]amino}-1H-isoindole-1,3(2H)-dione] | 27
CN1CCN(c2ccc(Nc3ncc4c(=O)c(-c5c(Cl)cccc5Cl)cn(-c5ccncc5)c4n3)cc2)CC1 [Example 7, 6-(2,6-dichlorophenyl)-2-{[4-(4-methylpiperazin-1-yl)phenyl]amino}-8-(pyridin-4-yl)pyrido[2,3-d]pyrimidin-5(8H)-one] | 0.6
CN(C)C1CCN(c2ncc(Nc3ncc4c(=O)c(-c5c(Cl)cccc5Cl)cn(C)c4n3)cn2)CC1 [Example 62, 6-(2,6-dichlorophenyl)-2-({2-[4-(dimethylamino)piperidin-1-yl]pyrimidin-5-yl}amino)-8-methylpyrido[2,3-d]pyrimidin-5(8H)-one] | 3
Cn1cc(-c2c(F)cccc2Cl)c(=O)c2cnc(Nc3ccc4c(c3)CNCC4)nc21 [Example 74, 6-(2-chloro-6-fluorophenyl)-8-methyl-2-(1,2,3,4-tetrahydroisoquinolin-7-ylamino)pyrido[2,3-d]pyrimidin-5(8H)-one] | 1.2
Cn1cc(-c2c(Cl)cccc2Cl)c(=O)c2cnc(N)nc21 [Example 45, 2-amino-6-(2,6-dichlorophenyl)-8-methylpyrido[2,3-d]pyrimidin-5(8H)-one] | 180
Cn1cc(-c2c(Cl)cccc2Cl)c(=O)c2cnc(Nc3ccc(N[C@@H]4CCNC4)cc3)nc21 [Example 63, 6-(2,6-dichlorophenyl)-8-methyl-2-({4-[(3R)-pyrrolidin-3-ylamino]phenyl}amino)pyrido[2,3-d]pyrimidin-5(8H)-one] | 0.7
Cn1cc(-c2c(Cl)cccc2Cl)c(=O)c2cnc(Nc3cc4c(s3)CCNC4)nc21 [Example 58, 6-(2,6-dichlorophenyl)-8-methyl-2-(4,5,6,7-tetrahydrothieno[3,2-c]pyridin-2-ylamino)pyrido[2,3-d]pyrimidin-5(8H)-one] | 0.4
CN1CCN(c2ccc(Nc3ncc4c(=O)c(-c5c(F)cccc5Cl)cn(C5CC5)c4n3)cc2)CC1 [Example 37, 6-(2-chloro-6-fluorophenyl)-8-cyclopropyl-2-{[4-(4-methylpiperazin-1-yl)phenyl]amino}pyrido[2,3-d]pyrimidin-5(8H)-one] | 2.4
Cn1cc(-c2c(Cl)cccc2Cl)c(=O)c2cnc(Nc3ccc(N4CCOCC4)cc3)nc21 [Example 48, 6-(2,6-dichlorophenyl)-8-methyl-2-{[4-(morpholin-4-yl)phenyl]amino}pyrido[2,3-d]pyrimidin-5(8H)-one] | 1.7
CN1CCc2cc(Nc3ncc4c(=O)c(-c5c(Cl)cccc5Cl)cn(C)c4n3)ccc2C1 [Example 54, 6-(2,6-dichlorophenyl)-8-methyl-2-[(2-methyl-1,2,3,4-tetrahydroisoquinolin-6-yl)amino]pyrido[2,3-d]pyrimidin-5(8H)-one] | 0.3
CN1CCN(c2ccc(Nc3ncc4c(=O)c(-c5c(Cl)cccc5Cl)cn(-c5ccccc5)c4n3)cc2)CC1 [Example 4, 6-(2,6-dichlorophenyl)-2-{[4-(4-methylpiperazin-1-yl)phenyl]amino}-8-phenylpyrido[2,3-d]pyrimidin-5(8H)-one] | 0.1
